According to patent US9212130B2, “Heterocyclic derivative and pharmaceutical composition comprising the same” (SHIONOGI & CO., LTD., priority 2010, dated 2015):

Columns and labels:
human P2X3 receptor = human P2X3 receptor (Homo sapiens (Human), UniProt P56373); assay: Evaluation of human P2X3 receptor inhibitory activity (ATP-induced Fluo-3 fluorescence, FDSS 3000); format: cell-based; settings: C6BU-1 cell transfected with human P2X3 receptor gene
How it was run: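 Human P2X3 inhibition read as ATP-evoked Fluo-3 calcium fluorescence; compound preincubated, then 50 nM ATP solution (concentration as dispensed) added and fluorescence followed 3 min. Response taken as peak-to-baseline fluorescence ratio per well; IC50 derived from concentration–response.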

Solubility test = format: physicochemical; settings: 25 °C, other biorelevant, kinetic from dmso stock
Description: The solubility of a compound was determined under a condition in which 1% DMSO was added. 10 mmol/L compound solution was prepared using DMSO, and then 6 μL of the compound solution was added to 594 μL of artificial intestinal juice in […] (to 250 mL of 0.2 mol/L potassium dihydrogen phosphate reagent solution was added 118 mL of 0.2 mol/L NaOH reagent solution and water to provide a final volume of 1000 mL). After standing at 25 degrees Celsius for 16 hours, the mixed solution was filtrated with suction. The filtrate was diluted twice with methanol/water (1/1) and then a concentration in the filtration was measured with HPLC or LC/MS/MS by the absolute calibration method.

CYP3A4 [1] = target: T1, CYP3A4 (Homo sapiens (Human), UniProt P08684); assay: CYP3A4 fluorescent MBI test; format: in vitro ADME; settings: pre-reaction time 0 or 30 minutes; substrate 7-BFC; CYP3A4 expressed in Escherichia coli
Description: The CYP3A4 fluorescent MBI test is a test of investigating enhancement of CYP3A4 inhibition of a compound by a metabolism reaction, and the test is performed using, as CYP3A4 enzyme expressed in Escherichia coli and employing, as an index, a reaction in which 7-benzyloxytrifluoromethylchmarin (BFC) is debenzylated by the CYP3A4 enzyme to produce a metabolite, 7-hydroxytrifluoromethylchmarin (HFC) emitting fluorescent light.
The reaction conditions were as follows: substrate, 5.6 μmol/L 7-BFC; pre-reaction time, 0 or 30 minutes; reaction time, 15 minutes; reaction temperature, 25° C.
An enzyme in a K-Pi buffer (pH 7.4) and a test drug solution as a pre-reaction solution were added to a 96-well plate at the composition of the pre-reaction, a part of it was transferred to another 96-well plate so that it was 1/10 diluted by a substrate in a K-Pi buffer, NADPH as a co-factor was added to initiate a reaction as an index (without preincubation) and, after a predetermined time of a reaction, acetonitrile: 0.5 mol/L Tris (trishydroxyaminomethane)=4:1 was added to stop the reaction. In addition, NADPH was added to a remaining preincubation solution to initiate a preincubation (with preincubation) and, after a predetermined time of a preincubation, a part was transferred to another plate so that it was 1/10 diluted with a substrate and a K-Pi buffer to initiate a reaction as an index, After a predetermined time of a reaction, acetonitrile: 0.5 mol/L Tris (trishydroxyaminomethane)=4:1 was added to stop the reaction. For the plate on which each index reaction had been performed, a fluorescent value of 7-HFC which is a metabolite was measured with a fluorescent plate reader. (Ex=420 nm, Em=535 nm).
Addition of only DMSO which is a solvent dissolving a drug to a reaction system was adopted as a control (100%), remaining activity (%) was calculated at each concentration of a test drug added as the solution, and IC50 was calculated by reverse-presumption by a logistic model using a concentration and an inhibition rate. When a difference between IC50 values is 5 or more, this was defined as (+) and, when the difference is 3 μmol/L or less, this was defined as (−).

CYP1A2 = CYP1A2 (Homo sapiens (Human), UniProt P05177); assay: CYP inhibition test, 7-ethoxyresorufin O-deethylation; format: in vitro ADME; settings: pooled human hepatic microsome; 0.5 μmol/L ethoxyresorufin; given as 'five kinds'
Description: (§1) Using commercially available pooled human hepatic microsome, and employing, as markers, 7-ethoxyresorufin O-deethylation (CYP1A2), tolbutamide methyl-hydroxylation (CYP2C9), mephenyloin 4′-hydroxylation (CYP2C19), dextromethorphan O-demethylation (CYP2D6), and terfenedine hydroxylation as typical substrate metabolism reactions of human main five ([…] enzyme forms (CYP1A2, 2C9, 2C19, 2D6, 3A4), an inhibitory degree of each metabolite production amount by a test compound was assessed.
(§2) The reaction conditions were as follows: substrate, 0.5 μmol/L ethoxyresorufin (CYP1A2), 100 μmol/L tolbutamide (CYP2C9), 50 μmol/L S-mephenitoin (CYP2C19), 5 μmol/L dextromethorphan (CYP2D6), 1 μmol/L terfenedine (CYP3A4); reaction time, 15 minutes; reaction temperature, 37° C.; enzyme, pooled human hepatic microsome 0.2 mg protein/mL; test drug concentration, 1.0. 5.0, 10, 20 μmol/L (four points).
(§3) Each five kinds of substrates, human hepatic microsome, or a test drug in 50 mmol/L Hepes buffer as a reaction solution was added to a 96-well plate at the composition as described above. NADPH, as a cofactor was added to initiate metabolism reactions as markers and, after the incubation at 37° C. for 15 minutes, a methanol/acetonitrile=1/1 (v/v) solution was added to stop the reaction. After the centrifugation at 3000 rpm for 15 minutes, resorufin (CYP1A2 metabolite) in the supernatant was quantified by a fluorescent multilabel counter and tributamide hydroxide (CYP2CP metabolite), mephenyloin 4′ hydroxide (CYP2C19 metabolite), […], and terfenadine alcohol (CYP3A4 metabolite) were quantified by LC/MS/MS.
(§4) Addition of only DMSO being a solvent dissolving a drug to a reaction system was adopted as a control (100%), remaining activity (%) was calculated at each concentration of a test drug added as the solution and IC50 was calculated by reverse presumption by a logistic model using a concentration and an inhibition rate.

CYP2C9 = CYP2C9 (Homo sapiens (Human), UniProt P11712); assay: CYP inhibition test, tolbutamide methyl-hydroxylation; format: in vitro ADME; settings: pooled human hepatic microsome; 100 μmol/L tolbutamide; given as 'five kinds'
Description: as §1, §2, §3, §4

CYP2C19 = CYP2C19 (Homo sapiens (Human), UniProt P33261); assay: CYP inhibition test, mephenyloin 4'-hydroxylation; format: in vitro ADME; settings: pooled human hepatic microsome; 50 μmol/L S-mephenitoin; given as 'five kinds'
Description: as §1, §2, §3, §4

CYP2D6 = CYP2D6 (Homo sapiens (Human), UniProt P10635); assay: CYP inhibition test, dextromethorphan O-demethylation; format: in vitro ADME; settings: pooled human hepatic microsome; 5 μmol/L dextromethorphan; given as 'five kinds'
Description: as §1, §2, §3, §4

CYP3A4 [2] = target: T1, CYP3A4; assay: CYP inhibition test, terfenedine hydroxylation; format: in vitro ADME; settings: pooled human hepatic microsome; 1 μmol/L terfenedine; given as 'five kinds'
Description: as §1, §2, §3, §4

[3] = Metabolism stability test (pooled human hepatic microsomes); format: in vitro ADME; settings: human liver microsomes 0.5 mg protein/mL; 37° C., 30 minutes; 1 mmol/L NADPH; compound concentration 0.5 μmol/L
Description: Using commercially available pooled human hepatic microsomes, a test compound was reacted for a constant time, a remaining rate was calculated by comparing a reacted sample and an unreacted sample, thereby, a degree of metabolism in liver was assessed.
A reaction was performed (oxidative reaction) at 37° C. for 0 minute or 30 minutes in the presence of 1 mmol/L NADPH in 0.2 mL of a buffer (50 mmol/L tris-HCl pH 7.4, 150 mmol/L potassium chloride, 10 mmol/L magnesium chloride) containing 0.5 mg protein/mL of human liver microsomes. After the reaction, 50 μL of the reaction solution was added to 100 μL of a methanol/acetonitrile 1/1 (v/v), mixed and centrifuged at 3000 rpm for 15 minutes. The test compound in the supernatant was quantified by LC/MS/MS, and a remaining amount of the test compound after the reaction was calculated, letting a compound amount at 0 minute reaction time to be 100%.

[4] = Bioavailability (BA) test; format: in vivo; settings: plasma; Mice or SD rats; oral 0.3 to 30 mg/kg vs intravenous 0.5 to 10 mg/kg; from AUCs
Description: Materials and Methods for Experiment of BA
• (1) Animals: Mice or SD rats were used • (2) Breeding conditions: Mice or SD rats were allowed to freely take solid food and sterilized tap water. • (3) Dose and grouping: orally or intravenously administered at a predetermined dose; grouping was as follows (Dose depends on the compound) Oral administration: 0.3 to 30 mg/kg (n=2 to 3) Intravenous administration: 0.5 to 10 mg/kg (n=2 to 3) • (4) Preparation of dosing solution: for oral administration, in a solution or a suspension state; for intravenous administration, in a solubilized state • (5) Administration method: in oral administration, forcedly administer into ventriculus with oral probe; in intravenous administration, administer from caudal vein with a needle-equipped syringe • (6) Evaluation items: blood was collected over time, and the plasma concentration of drug was measured by LC/MS/MS • (7) Statistical analysis: regarding the transition of the plasma concentration of the present compound, the area under the plasma concentration-time curve (AUC) was calculated by non-linear least squares program WinNonlin (Registered trade name), and the bioavailability (BA) was calculated from the AUCs of the oral administration group and intravenous administration group

[5] = artificial intestinal juice (phosphate buffer) with 1% DMSO, artificial intestinal juice in pH 8.8, 25 degrees Celsius for 16 hours

Sequence of CYP2C19 (P33261 whole entry): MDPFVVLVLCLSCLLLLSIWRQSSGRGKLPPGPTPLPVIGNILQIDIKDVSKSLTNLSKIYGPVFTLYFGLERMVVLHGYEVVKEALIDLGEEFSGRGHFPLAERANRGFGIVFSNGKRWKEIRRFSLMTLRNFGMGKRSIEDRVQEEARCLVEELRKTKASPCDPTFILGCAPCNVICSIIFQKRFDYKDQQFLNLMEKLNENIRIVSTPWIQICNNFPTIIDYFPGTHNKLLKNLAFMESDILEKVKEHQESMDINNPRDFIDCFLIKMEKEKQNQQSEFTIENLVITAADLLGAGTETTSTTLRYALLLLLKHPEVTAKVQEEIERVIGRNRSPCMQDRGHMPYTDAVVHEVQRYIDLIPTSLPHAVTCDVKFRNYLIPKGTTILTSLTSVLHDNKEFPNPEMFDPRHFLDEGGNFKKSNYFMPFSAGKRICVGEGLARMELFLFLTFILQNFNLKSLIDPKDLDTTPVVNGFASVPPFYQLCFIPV
Sequence of human P2X3 receptor (P56373 whole entry): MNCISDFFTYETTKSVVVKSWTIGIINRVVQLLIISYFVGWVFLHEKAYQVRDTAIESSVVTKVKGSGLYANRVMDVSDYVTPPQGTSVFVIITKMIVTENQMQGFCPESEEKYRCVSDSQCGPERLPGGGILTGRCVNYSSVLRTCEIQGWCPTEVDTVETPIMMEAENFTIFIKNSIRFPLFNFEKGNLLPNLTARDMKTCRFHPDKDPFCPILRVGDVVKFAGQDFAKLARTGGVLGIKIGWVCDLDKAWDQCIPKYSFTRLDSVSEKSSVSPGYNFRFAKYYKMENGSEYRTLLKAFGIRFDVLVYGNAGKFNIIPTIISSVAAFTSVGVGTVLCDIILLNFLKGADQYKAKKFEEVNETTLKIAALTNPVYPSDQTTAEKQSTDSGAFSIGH
T1 sequence (P08684 whole entry): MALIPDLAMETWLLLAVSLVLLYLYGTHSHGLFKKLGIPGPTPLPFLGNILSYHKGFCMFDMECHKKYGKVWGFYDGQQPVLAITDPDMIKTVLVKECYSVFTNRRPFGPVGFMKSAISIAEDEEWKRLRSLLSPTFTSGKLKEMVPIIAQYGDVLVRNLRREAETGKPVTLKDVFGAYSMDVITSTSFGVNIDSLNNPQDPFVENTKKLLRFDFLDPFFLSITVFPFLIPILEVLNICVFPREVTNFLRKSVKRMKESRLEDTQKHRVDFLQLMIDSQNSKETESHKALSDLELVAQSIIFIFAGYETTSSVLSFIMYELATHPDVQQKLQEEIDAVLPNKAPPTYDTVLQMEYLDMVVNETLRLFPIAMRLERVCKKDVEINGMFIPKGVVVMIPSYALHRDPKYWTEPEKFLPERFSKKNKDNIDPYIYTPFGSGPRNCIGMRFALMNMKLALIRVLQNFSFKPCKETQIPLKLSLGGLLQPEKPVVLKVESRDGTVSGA
Sequence of CYP2D6 (P10635 whole entry): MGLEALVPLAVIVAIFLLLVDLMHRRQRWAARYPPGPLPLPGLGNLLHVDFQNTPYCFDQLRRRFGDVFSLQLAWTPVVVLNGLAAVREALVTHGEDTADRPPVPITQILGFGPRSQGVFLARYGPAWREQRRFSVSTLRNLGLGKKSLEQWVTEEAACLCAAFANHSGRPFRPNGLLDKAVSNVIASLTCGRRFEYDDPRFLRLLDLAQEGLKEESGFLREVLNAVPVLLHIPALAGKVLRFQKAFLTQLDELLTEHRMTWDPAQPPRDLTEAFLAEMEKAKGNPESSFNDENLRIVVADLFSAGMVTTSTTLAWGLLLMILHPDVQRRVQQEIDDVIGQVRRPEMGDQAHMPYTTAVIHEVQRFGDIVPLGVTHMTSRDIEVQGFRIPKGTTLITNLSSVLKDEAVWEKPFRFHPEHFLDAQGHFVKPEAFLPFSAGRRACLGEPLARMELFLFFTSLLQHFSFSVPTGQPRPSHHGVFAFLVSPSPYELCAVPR
Sequence of CYP2C9 (P11712 whole entry): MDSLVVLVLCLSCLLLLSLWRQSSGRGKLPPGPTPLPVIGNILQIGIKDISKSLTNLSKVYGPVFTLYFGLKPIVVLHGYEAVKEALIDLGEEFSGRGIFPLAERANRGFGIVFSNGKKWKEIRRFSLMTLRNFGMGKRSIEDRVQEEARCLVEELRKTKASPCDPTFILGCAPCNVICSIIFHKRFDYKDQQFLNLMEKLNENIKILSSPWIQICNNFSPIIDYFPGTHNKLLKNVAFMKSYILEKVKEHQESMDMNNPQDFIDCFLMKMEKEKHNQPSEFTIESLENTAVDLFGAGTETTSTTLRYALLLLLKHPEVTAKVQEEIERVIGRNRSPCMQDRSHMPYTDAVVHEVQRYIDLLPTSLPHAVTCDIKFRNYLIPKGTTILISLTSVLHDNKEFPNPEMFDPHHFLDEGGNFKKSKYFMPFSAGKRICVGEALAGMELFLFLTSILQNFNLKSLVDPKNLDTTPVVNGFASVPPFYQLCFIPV
Sequence of CYP1A2 (P05177 whole entry): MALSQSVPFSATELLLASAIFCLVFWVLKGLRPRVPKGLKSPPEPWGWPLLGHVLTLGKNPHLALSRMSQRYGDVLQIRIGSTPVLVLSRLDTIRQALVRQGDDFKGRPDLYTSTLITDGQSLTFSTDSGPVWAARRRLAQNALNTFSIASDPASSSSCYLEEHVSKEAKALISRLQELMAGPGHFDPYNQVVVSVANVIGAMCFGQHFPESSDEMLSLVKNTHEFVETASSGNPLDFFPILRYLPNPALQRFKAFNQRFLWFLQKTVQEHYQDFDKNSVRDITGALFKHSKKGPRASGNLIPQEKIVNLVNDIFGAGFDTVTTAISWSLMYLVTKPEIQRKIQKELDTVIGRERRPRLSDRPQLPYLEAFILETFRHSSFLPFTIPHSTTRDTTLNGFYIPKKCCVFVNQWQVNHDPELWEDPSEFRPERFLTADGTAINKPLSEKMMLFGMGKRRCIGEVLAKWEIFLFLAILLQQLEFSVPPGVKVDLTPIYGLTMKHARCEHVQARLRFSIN

`CC(=O)N1CCC(C(=O)Nc2cnc(Nc3ccc4nc(C)sc4c3)n(Cc3ccc(Cl)cc3)c2=O)CC1` [I-356] gave an IC50 (human P2X3 receptor) of 18 nM and a solubility at 16 h (Solubility test; [5]) greater than 50 µM.

Work on `O=C(O)c1cncc(Oc2ccc(Nc3ncc(NC(=O)C4CCOCC4)c(=O)n3Cc3ccc(Cl)cc3)cc2)c1` [I-305] yielded an IC50 (human P2X3 receptor) of 4 nM, an IC50 difference (CYP3A4 [1]) of less than 3000 nM and an IC50 (CYP1A2) greater than 20000 nM. It also gave an IC50 (CYP2C9) greater than 20000 nM, an IC50 (CYP2C19) greater than 20000 nM and an IC50 (CYP2D6) greater than 20000 nM. It also gave an IC50 (CYP3A4 [2]) greater than 20000 nM and a solubility at 16 h (Solubility test; [5]) greater than 50 µM.

With `O=C(O)c1cccc(Oc2ccc(Nc3ncc(NC(=O)C4CCOCC4)c(=O)n3Cc3ccc(Cl)cc3)cc2)c1` [I-359] the IC50 (human P2X3 receptor) was 2 nM, the IC50 difference (CYP3A4 [1]) was less than 3000 nM and the remaining rate [3] was 101%.

`Cc1cc(Nc2cc(=O)n(C[C@H](C)C(=O)O)c(=O)n2Cc2ccc(Cl)cc2)ccc1OC(C)C` [I-215] showed an IC50 (human P2X3 receptor) of 24 nM and a bioavailability [4] of 49.7%.

In the case of `Cc1ncc(Oc2ccc(Nc3ncc(NC(=O)C4CCOCC4)c(=O)n3Cc3ccc(Cl)cc3)cc2)cc1F` [I-313], the IC50 (human P2X3 receptor) is reported as 3 nM and the bioavailability [4] is reported as 28.5%.

With `CC(C)Oc1ccc(Nc2cc(=O)n(CC(C)(C)C(=O)O)c(=O)n2Cc2ccc(Cl)cc2)cc1F` [I-021] the IC50 (human P2X3 receptor) was 19 nM and the bioavailability [4] was 49.1%.

Molecule `Cc1nc2ccc(Nc3cc(=O)n(CCCC(=O)O)c(=O)n3Cc3ccc(Cl)cc3)cc2s1` [I-354] has an IC50 (human P2X3 receptor) of 94 nM, an IC50 difference (CYP3A4 [1]) of less than 3000 nM and an IC50 (CYP1A2) greater than 20000 nM. The IC50 (CYP2C9) was greater than 20000 nM, the IC50 (CYP2C19) was greater than 20000 nM and the IC50 (CYP2D6) was greater than 20000 nM. For the same molecule, the IC50 (CYP3A4 [2]) was greater than 20000 nM.

For `CCn1c(=O)cc(Nc2ccc(Oc3cncc(C(=O)O)c3)cc2)n(Cc2ccc(Cl)cc2)c1=O` [I-315], the IC50 (human P2X3 receptor) was 6 nM, the IC50 difference (CYP3A4 [1]) was less than 3000 nM and the remaining rate [3] was 105%.

Work on `CC(C)Oc1ccc(Nc2nc(=O)c(C(=O)NC3CCOCC3)cn2Cc2ccc(Cl)cc2)cc1F` [I-241] yielded an IC50 (human P2X3 receptor) of 31 nM, an IC50 (CYP1A2) greater than 20000 nM and an IC50 (CYP2C9) greater than 20000 nM. It also gave an IC50 (CYP2C19) greater than 20000 nM, an IC50 (CYP2D6) greater than 20000 nM and an IC50 (CYP3A4 [2]) greater than 20000 nM. It also gave a remaining rate [3] of 88%.

Work on `Cc1nc2ccc(Nc3nc(=O)c(C(=O)NC4CCOCC4)cn3Cc3ccc(Cl)cc3)cc2s1` [I-286] yielded an IC50 (human P2X3 receptor) of 8 nM and a bioavailability [4] of 41.7%.

For `CC(C)Oc1ccc(Nc2cc(=O)n(CC(=O)NCCO)c(=O)n2Cc2ccc(Cl)cc2)cc1F` [I-112, 1-(4-chlorobenzyl)-6-(3-fluoro-4-isopropoxyphenylamino)-3-(2-hydroxyethylcarbamoylmethyl)pyrimidine-2,4(1H,3H)-dion], the IC50 (human P2X3 receptor) was 14 nM and the solubility at 16 h (Solubility test; 1% DMSO, artificial intestinal juice in pH 8.8, 25 degrees Celsius for 16 hours) was greater than 50 µM.

Molecule `CC(C)Oc1ccc(Nc2ncc(NC(=O)NC3CCOCC3)c(=O)n2Cc2ccc(Cl)cc2)cc1F` [I-289] has an IC50 (human P2X3 receptor) of 7 nM and a remaining rate [3] of 89%.

`CCOC(=O)c1cn(Cc2ccc(Cl)cc2)c(Nc2ccc(OC(C)C)c(F)c2)nc1=O` [I-131, 1-(4-chlorobenzyl)-2-(3-fluoro-4-isopropoxyphenylamino)-5-(ethoxycarbonyl)pyrimidine-4(1H)-one] gave a remaining rate [3] of 92%.

`Cc1nc2ccc(Nc3nc(=O)c(C(=O)NCCCO)cn3Cc3ccc(Cl)cc3)cc2s1` [I-299] showed an IC50 (human P2X3 receptor) of 111 nM and a solubility at 16 h (Solubility test; [5]) greater than 50 µM.
